This is an account of results in patent US12201640B2, “19-nor C3,3-disubstituted C21-n-pyrazolyl steroids and methods of use thereof” (Sage Therapeutics, Inc., priority 2013, dated 2025).

The IC50 is the midpoint of a concentration-inhibition curve. A low value points to greater potency.

The target in one assay is T1, GABAA receptor α1β2γ2 (Homo sapiens, UniProt P14867+P47870).
T1 construct: expressed in transfected cells
As to the kind of experiment: Patch clamp electrophysiology, Qpatch in Ltk cells. Format: cell-based. The conditions noted are these: 10 μM test article, GABA EC20 2 μM, read-out: GABA (α1β2γ2) Qpatch in Ltk, % efficacy at 10 μM. The method, boiled down: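 Whole-cell voltage clamp at −80 mV, room temperature: α1β2γ2 stably expressed in Ltk cells (QPatch), α4β3δ transiently in CHO cells (manual patch). Compound at 0.01–10 μM pre-applied 30 s, then 2 μM GABA (EC20) for 2 s. Potentiation = peak current with compound / GABA alone × 100.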
In general terms: The patch-clamp technique gives a direct electrical read-out from membranes.

The target in assay [1] is [35S]-TBPS binding, rat brain cortical membranes (GABA receptor complex). As to the kind of experiment: Steroid inhibition of [35S]-TBPS binding. The conditions noted are these: 3 nM [35S]-TBPS, 5 μM GABA. As for the experimental part: Steroid Inhibition of TBPS Binding
[35S]-t-Butylbicyclophosphorothionate (TBPS) binding assays using rat brain cortical membranes in the presence of 5 μM GABA has been described (Gee et al, J. Pharmacol. Exp. Ther. 1987, 241, 346-353; Hawkinson et al, Mol. Pharmacol. 1994, 46, 977-985; Lewin, A. H et al., Mol. Pharmacol. 1989, 35, 189-194).
Briefly, cortices are rapidly removed following decapitation of carbon dioxide-anesthetized Sprague-Dawley rats (200-250 g). The cortices are homogenized in 10 volumes of ice-cold 0.32 M sucrose using a glass/teflon homogenizer and centrifuged at 1500×g for 10 min at 4° C. The resultant supernatants are centrifuged at 10,000×g for 20 min at 4° C. to obtain the P2 pellets. The P2 pellets are resuspended in 200 mM NaCl/50 mM Na-K phosphate pH 7.4 buffer and centrifuged at 10,000×g for 10 min at 4° C. This washing procedure is repeated twice and the pellets are resuspended in 10 volumes of buffer. Aliquots (100 μL) of the membrane suspensions are incubated with 3 nM [^35S]-TBPS and 5 μL aliquots of test drug dissolved in dimethyl sulfoxide (DMSO) (final 0.5%) in the presence of 5 μM GABA. The incubation is brought to a final volume of 1.0 mL with buffer. Nonspecific binding is determined in the presence of 2 μM unlabeled TBPS and ranged from 15 to 25%. Following a 90 min incubation at room temp, the assays are terminated by filtration through glass fiber filters (Schleicher and Schuell No. 32) using a cell harvester (Brandel) and rinsed three times with ice-cold buffer. Filter bound radioactivity is measured by liquid scintillation spectrometry. Non-linear curve fitting of the overall data for each drug averaged for each concentration is done using Prism (GraphPad). […] The concentration of test compound producing 50% inhibition (IC50) of specific binding and the maximal extent of inhibition (Imax) are determined for the individual experiments with the same model used for the overall data and then the means±SEM.s of the individual experiments are calculated.
Various compounds are or can be screened to determine their potential as modulators of [^35S]-TBPS binding in vitro. These assays are or can be performed in accordance with the above discussed procedures.

T1 sequence (P14867 28-456): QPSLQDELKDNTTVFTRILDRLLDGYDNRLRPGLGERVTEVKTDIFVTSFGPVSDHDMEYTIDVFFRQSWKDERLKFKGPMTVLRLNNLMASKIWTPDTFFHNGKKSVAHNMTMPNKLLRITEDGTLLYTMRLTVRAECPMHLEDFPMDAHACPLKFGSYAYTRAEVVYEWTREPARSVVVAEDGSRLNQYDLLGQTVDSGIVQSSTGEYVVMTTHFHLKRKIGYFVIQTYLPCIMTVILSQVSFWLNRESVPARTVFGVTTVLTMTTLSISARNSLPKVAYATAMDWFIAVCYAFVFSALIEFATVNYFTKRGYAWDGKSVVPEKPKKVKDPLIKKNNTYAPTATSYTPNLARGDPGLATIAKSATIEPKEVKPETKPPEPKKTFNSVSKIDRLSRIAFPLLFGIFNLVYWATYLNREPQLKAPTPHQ
T1 sequence (P47870 25-512 limits assumed): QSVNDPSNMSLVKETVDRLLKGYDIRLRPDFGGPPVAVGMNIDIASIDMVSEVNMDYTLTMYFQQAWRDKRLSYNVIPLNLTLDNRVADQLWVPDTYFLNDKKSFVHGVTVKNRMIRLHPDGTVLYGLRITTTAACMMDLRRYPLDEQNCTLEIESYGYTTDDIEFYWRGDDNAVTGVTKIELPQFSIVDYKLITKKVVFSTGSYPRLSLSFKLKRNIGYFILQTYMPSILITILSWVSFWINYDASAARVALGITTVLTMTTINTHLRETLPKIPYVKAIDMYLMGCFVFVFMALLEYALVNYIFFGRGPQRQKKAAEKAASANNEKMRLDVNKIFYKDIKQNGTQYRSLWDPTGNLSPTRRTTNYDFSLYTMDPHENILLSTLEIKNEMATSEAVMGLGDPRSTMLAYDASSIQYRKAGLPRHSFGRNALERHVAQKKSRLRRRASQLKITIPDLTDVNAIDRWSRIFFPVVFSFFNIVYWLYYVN
T1 sequence (P18507 40-475 partner): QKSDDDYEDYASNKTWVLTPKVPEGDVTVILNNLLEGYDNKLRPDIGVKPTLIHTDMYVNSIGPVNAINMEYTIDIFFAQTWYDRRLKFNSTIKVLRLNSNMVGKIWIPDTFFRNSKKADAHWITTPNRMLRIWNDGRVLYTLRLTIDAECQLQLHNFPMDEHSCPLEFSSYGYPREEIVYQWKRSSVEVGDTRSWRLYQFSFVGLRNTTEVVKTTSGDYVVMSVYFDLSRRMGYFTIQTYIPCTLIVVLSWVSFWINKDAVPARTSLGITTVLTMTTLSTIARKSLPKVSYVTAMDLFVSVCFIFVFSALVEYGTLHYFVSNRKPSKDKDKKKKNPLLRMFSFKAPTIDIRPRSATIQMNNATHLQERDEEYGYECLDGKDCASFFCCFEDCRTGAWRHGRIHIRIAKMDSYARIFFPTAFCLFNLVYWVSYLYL

Turning to `C[C@@]1(O)CC[C@H]2[C@H](CC[C@@H]3[C@@H]2CC[C@]2(C)[C@@H](C(=O)Cn4cccn4)CC[C@@H]32)C1` [SA-13], the Emax at 10 µM on GABAA receptor α1β2γ2 is 100 to 500%. In assay [1], this compound returned an IC50 of 10 to 50 nM.
On the same counts, the results for `C[C@@]1(O)CC[C@H]2[C@H](CC[C@@H]3[C@@H]2CC[C@]2(C)[C@@H](C(=O)Cn4cc(C#N)cn4)CC[C@@H]32)C1` [SA-4] are 100 to 500% and less than 10 nM.
Take `Cc1cnn(CC(=O)[C@H]2CC[C@H]3[C@@H]4CC[C@@H]5C[C@](C)(O)CC[C@@H]5[C@H]4CC[C@]23C)c1` [SA-6]: at GABAA receptor α1β2γ2, the Emax at 10 µM lay within 100 to 500%. In assay [1], the IC50 lay within 10 to 50 nM.
